According to US11840533B2, “Pyridinone-based epigenetic modifiers and uses thereof” (THE BOARD OF TRUSTEES OF THE UNIVERSITY OF ILLINOIS, priority 2017, dated 2023):

What follows are compounds tested on fulvestrant-resistant MCF7:5C-FR cells (assay: Fulvestrant-resistant breast cancer cell viability (cell proliferation) assay). Details: 120 h, growth inhibition in fulvestrant-resistant MCF-7:CFR cells, 120 hrs.
Type: cell-based
Experimental: For the cell proliferation assay, the fulvestrant-resistant MCF7:5C-FR cells were seeded at about 2000 to about 2500/well in 96-well plates. The next day, compounds were add to the cells at desired serial concentrations form 3 nM to 10 uM. A final 0.1% (v/v) DMSO was used as vehicle control and 1 uM JQ1 was used as positive. The cell were grown in the normal culture condition for 120 hrs. Then the Hoechst 33342 dye were add to each well at a final concentration of 5 μg/ml, and put back to the incubator at 37 C for 90 min. The plates were scanned immediately after the incubation with Celigo (Nexcelcom Biocesnse) for the fluorescence of the nuclear using DAPI channel, and the cell number was counted thought the analysis function of the Celigo software. The normalized cell number to the vehicle control was used to represent the cell proliferation. […] N.D.=Not determined.
In the case of `CCS(=O)(=O)Nc1cccc2c1nc(-c1cn(C)c3c(O)nccc13)n2Cc1ccccc1C(F)(F)F` [Compound 62, N-(2-(7-hydroxy-1-methyl-1H-pyrrolo[2,3-c]pyridin-3-yl)-1-(2-(trifluoromethyl)benzyl)-1H-benzo[d]imidaol-4-yl)ethanesulfonamide], the IC50 is reported as > 100 nM.
`CCS(=O)(=O)Nc1cc(-c2cn(C)c3c(O)nccc23)cc2c1cnn2C(C)(c1ccccn1)c1ccccn1` [Compound 63, N-(1-(1,1-di(pyridin-2-yl)ethyl)-6-(7-hydroxy-1-methyl-1H-pyrrolo[2,3-c]pyridin-3-yl)-1H-indazol-4-yl)ethanesulfonamide] was tested, and the IC50 was < 1000 nM.
In the case of `CCS(=O)(=O)Nc1cc(-c2cn(C)c3c(O)nccc23)cc2c1ncn2[C@H](c1ccccc1)C1CCOCC1` [Compound 64, (S)-N-(6-(7-hydroxy-1-methyl-1H-pyrrolo[2,3-c]pyridin-3-yl)-1-(phenyl(tetrahydro-2H-pyran-4-yl)methyl)-1H-benzo[d]imidaol-4-yl)ethanesulfonamide], the IC50 is reported as < 1000 nM.
With `CCS(=O)(=O)Nc1cccc2c1nc(-c1cn(C)c3c(O)nccc13)n2Cc1ccc(N(C)C)cc1` [Compound 66, N-(1-(4-(dimethylamino)benzyl)-2-(7-hydroxy-1-methyl-1H-pyrrolo[2,3-c]pyridin-3-yl)-1H-benzo[d]imidaol-4-yl)ethanesulfonamide] the IC50 was > 100 nM.
In the case of `Cn1cc(-c2nc3c(NS(C)(=O)=O)cccc3n2[C@H](c2ccccc2)C2CCOCC2)c2ccnc(O)c21` [Compound 67, (S)-N-(2-(7-hydroxy-1-methyl-1H-pyrrolo[2,3-c]pyridin-3-yl)-1-(phenyl(tetrahydro-2H-pyran-4-yl)methyl)-1H-benzo[d]imidaol-4-yl)methanesulfonamide], the IC50 is reported as < 1000 nM.
With `Cn1cc(-c2nc3c(NS(C)(=O)=O)cccc3n2[C@@H](c2ccccc2)C2CCOCC2)c2ccnc(O)c21` [Compound 68, (R)-N-(2-(7-hydroxy-1-methyl-1H-pyrrolo[2,3-c]pyridin-3-yl)-1-(phenyl(tetrahydro-2H-pyran-4-yl)methyl)-1H-benzo[d]imidaol-4-yl)methanesulfonamide] the IC50 was < 1000 nM.
In the case of `CCS(=O)(=O)Nc1cccc2c1nc(-c1cn(C)c3c(O)nccc13)n2C(C)(c1ccccn1)c1ccccn1` [Compound 69, N-(1-(1,1-di(pyridin-2-yl)ethyl)-2-(7-hydroxy-1-methyl-1H-pyrrolo[2,3-c]pyridin-3-yl)-1H-benzo[d]imidaol-4-yl)ethanesulfonamide], the IC50 is reported as < 1000 nM.
`Cn1cc(-c2cc(NS(C)(=O)=O)c3ccn(CC4CC(F)(F)C4)c3c2)c2cc[nH]c(=O)c21` [Compound 73, N-(1-((3,3-difluorocyclobutyl)methyl)-6-(1-methyl-7-oxo-6,7-dihydro-1H-pyrrolo[2,3-c]pyridin-3-yl)-1H-indol-4-yl)methanesulfonamide] was tested, and the IC50 was 62 nM.
For `Cn1cc(-c2cc(NS(C)(=O)=O)c3ccn(CC4(C)COC4)c3c2)c2cc[nH]c(=O)c21` [Compound 74, N-(6-(1-methyl-7-oxo-6,7-dihydro-1H-pyrrolo[2,3-c]pyridin-3-yl)-1-((3-methyloxetan-3-yl)methyl)-1H-indol-4-yl)methanesulfonamide], the IC50 was 134 nM.
With `CCS(=O)(=O)Nc1cc(-c2cn(C)c3c(=O)[nH]ccc23)cc2c1ccn2C(C)(c1nccn1C)c1nccn1C` [Compound 75, N-(1-(1,1-bis(1-methyl-1H-imidazol-2-yl)ethyl)-6-(7-hydroxy-1-methyl-1H-pyrrolo[2,3-c]pyridin-3-yl)-1H-indol-4-yl)ethanesulfonamide] the IC50 was < 1000 nM.
For `CCS(=O)(=O)Nc1cc(-c2cn(C)c3c(=O)[nH]ccc23)cc2c1ccn2C(C)(c1cnccn1)c1cnccn1` [Compound 76, N-(1-(1,1-di(pyrazin-2-yl)ethyl)-6-(7-hydroxy-1-methyl-1H-pyrrolo[2,3-c]pyridin-3-yl)-1H-indol-4-yl)ethanesulfonamide], the IC50 was < 1000 nM.
`CCN(C(=O)C1COC1)c1cc(-c2cn(C)c3c(=O)[nH]ccc23)cc2c1ccn2Cc1c(C)cccc1C` [Compound 77, N-(1-(2,6-dimethylbenzyl)-6-(7-hydroxy-1-methyl-1H-pyrrolo[2,3-c]pyridin-3-yl)-1H-indol-4-yl)-N-ethyloxetane-3-carboxamide] was tested, and the IC50 was > 100 nM.
With `CCC(=O)N(c1cc(-c2cn(C)c3c(=O)[nH]ccc23)cc2c1ccn2Cc1c(C)cccc1Cl)C1CC1` [Compound 78, N-(1-(2-chloro-6-methylbenzyl)-6-(7-hydroxy-1-methyl-1H-pyrrolo[2,3-c]pyridin-3-yl)-1H-indol-4-yl)-N-cyclopropylpropionamide] the IC50 was > 100 nM.
In the case of `CS(=O)(=O)Nc1cc(-c2cn(CCCl)c3c(O)nccc23)cc2c1ccn2Cc1ccc(F)cc1` [Compound 79, N-(6-(1-(2-chloroethyl)-7-hydroxy-1H-pyrrolo[2,3-c]pyridin-3-yl)-1-(4-fluorobenzyl)-1H-indol-4-yl)methanesulfonamide], the IC50 is reported as > 100 nM.
`CCS(=O)(=O)Nc1cc(-c2cn(CCCl)c3c(O)nccc23)cc2c1ccn2Cc1ccc(F)cc1` [Compound 80, N-(6-(1-(2-chloroethyl)-7-hydroxy-1H-pyrrolo[2,3-c]pyridin-3-yl)-1-(4-fluorobenzyl)-1H-indol-4-yl)ethanesulfonamide] was tested, and the IC50 was > 100 nM.
For `CCS(=O)(=O)Nc1cc(-c2cn(CCCl)c3c(O)nccc23)cc2c1ccn2Cc1ccc(F)cc1C` [Compound 81, N-(6-(1-(2-chloroethyl)-7-hydroxy-1H-pyrrolo[2,3-c]pyridin-3-yl)-1-(4-fluoro-2-methylbenzyl)-1H-indol-4-yl)ethanesulfonamide], the IC50 was > 100 nM.
`CCS(=O)(=O)Nc1cc(-c2cn(CCCl)c3c(O)nccc23)cc2c1ccn2Cc1ccc(F)cc1Cl` [Compound 82, N-(1-(2-chloro-4-fluorobenzyl)-6-(1-(2-chloroethyl)-7-hydroxy-1H-pyrrolo[2,3-c]pyridin-3-yl)-1H-indol-4-yl)ethanesulfonamide] was tested, and the IC50 was > 1000 nM.
With `CCS(=O)(=O)Nc1cc(-c2cn(CCCl)c3c(O)nccc23)cc2c1ccn2Cc1c(C)cc(F)cc1C` [Compound 83, N-(6-(1-(2-chloroethyl)-7-hydroxy-1H-pyrrolo[2,3-c]pyridin-3-yl)-1-(4-fluoro-2,6-dimethylbenzyl)-1H-indol-4-yl)ethanesulfonamide] the IC50 was > 1000 nM.
`CCS(=O)(=O)Nc1cc(-c2cn(CCCl)c3c(O)nccc23)cc2c1ccn2Cc1ccc(F)cc1F` [Compound 85, N-(6-(1-(2-chloroethyl)-7-hydroxy-1H-pyrrolo[2,3-c]pyridin-3-yl)-1-(2,4-difluorobenzyl)-1H-indol-4-yl)ethanesulfonamide] was tested, and the IC50 was < 1000 nM.
With `CCS(=O)(=O)Nc1cc(-c2cn(CCCl)c3c(O)nccc23)cc2c1ccn2Cc1ccc(C#N)cc1` [Compound 86, N-(6-(1-(2-chloroethyl)-7-hydroxy-1H-pyrrolo[2,3-c]pyridin-3-yl)-1-(4-cyanobenzyl)-1H-indol-4-yl)ethanesulfonamide] the IC50 was < 1000 nM.
`CCS(=O)(=O)Nc1cc(-c2cn(CCCl)c3c(O)nccc23)cc2c1ccn2Cc1ccc(Cl)c(Cl)c1` [Compound 87, N-(6-(1-(2-chloroethyl)-7-hydroxy-1H-pyrrolo[2,3-c]pyridin-3-yl)-1-(3,4-dichlorobenzyl)-1H-indol-4-yl)ethanesulfonamide] was tested, and the IC50 was < 1000 nM.
`C=CC(=O)Cn1cc(-c2cc(NS(C)(=O)=O)c3ccn(Cc4ccc(F)cc4)c3c2)c2ccnc(O)c21` [Compound 88, N-(1-(4-fluorobenzyl)-6-(7-hydroxy-1-(2-oxobut-3-en-1-yl)-1H-pyrrolo[2,3-c]pyridin-3-yl)-1H-indol-4-yl)methanesulfonamide] was tested, and the IC50 was < 1000 nM.
For `CS(=O)(=O)Nc1cc(-c2cn(CC3CO3)c3c(O)nccc23)cc2c1ccn2Cc1ccc(F)cc1` (stereo not shown) [Compound 89, N-(1-(4-fluorobenzyl)-6-(7-hydroxy-1-(oxiran-2-ylmethyl)-1H-pyrrolo[2,3-c]pyridin-3-yl)-1H-indol-4-yl)methanesulfonamide], the IC50 was < 1000 nM.
`CS(=O)(=O)Nc1cc(-c2cn(CC(=O)CCl)c3c(O)nccc23)cc2c1ccn2Cc1ccc(F)cc1` [Compound 90, N-(6-(1-(3-chloro-2-oxopropyl)-7-hydroxy-1H-pyrrolo[2,3-c]pyridin-3-yl)-1-(4-fluorobenzyl)-1H-indol-4-yl)methanesulfonamide] was tested, and the IC50 was < 1000 nM.
In the case of `CCS(=O)(=O)Nc1cc(-c2cn(C)c3c(O)nccc23)cc2c1ccn2[C@H](c1ccccc1)C1CCOCC1` [Compound 91, (S)-N-(6-(7-hydroxy-1-methyl-1H-pyrrolo[2,3-c]pyridin-3-yl)-1-(phenyl(tetrahydro-2H-pyran-4-yl)methyl)-1H-indol-4-yl)ethanesulfonamide], the IC50 is reported as < 1000 nM.
`CCS(=O)(=O)Nc1cc(-c2cn(C)c3c(O)nccc23)cc2c1ccn2[C@@H](c1ccccc1)C1CCOCC1` [Compound 92, (R)-N-(6-(7-hydroxy-1-methyl-1H-pyrrolo[2,3-c]pyridin-3-yl)-1-(phenyl(tetrahydro-2H-pyran-4-yl)methyl)-1H-indol-4-yl)ethanesulfonamide] was tested, and the IC50 was < 1000 nM.
With `CCS(=O)(=O)Nc1cc(-c2cn(CCCl)c3c(O)nccc23)cc2c1ccn2Cc1ccccc1` [Compound 95, N-(1-benzyl-6-(1-(2-chloroethyl)-7-hydroxy-1H-pyrrolo[2,3-c]pyridin-3-yl)-1H-indol-4-yl)ethanesulfonamide] the IC50 was > 100 nM.

Same assay, conditions: growth inhibition in fulvestrant-resistant MCF-7:CFR cells, 120 hrs
`CCS(=O)(=O)Nc1cc(-c2cn(CCCl)c3c(O)nccc23)cc2c1ccn2Cc1c(C)cccc1C` [Compound 84, N-(6-(1-(2-chloroethyl)-7-hydroxy-1H-pyrrolo[2,3-c]pyridin-3-yl)-1-(2,6-dimethylbenzyl)-1H-indol-4-yl)ethanesulfonamide] was tested, and the IC50 was < 1000 nM.
